* marks the point of attachment. Biotin = O=C1N[C@H]2[C@H](CS[C@H]2CCCCC(=O)*)N1
Columns and labels:
MMSc1 PDZ 8 = target: T1, MMSc1 PDZ 8 (Homo sapiens, UniProt Q8NI35); test: Peptide binding ELISA assay (PDZ Binding Assay), MMSC1 PDZ domain 8; conditions: immobilized GST fusion of MMSc1 PDZ 8; biotinylated peptide pre-bound to streptavidin-alkaline phosphatase; colorimetric phosphatase assay
T1 construct: made in house; host or cells: E. coli
T1 sequence (Q8NI35 1437-1520 limits assumed): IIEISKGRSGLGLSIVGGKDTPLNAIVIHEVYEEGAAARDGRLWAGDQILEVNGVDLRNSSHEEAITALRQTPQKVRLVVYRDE
Description: (§1) cDNAs encoding each of the MMSC1 PDZ domains (amino acid residues identified in Table 1), and any desired control proteins, were generated by PCR and subcloned as glutathione S-transferase (GST) fusions in pGEX vectors (Pharmacia). After sequencing to confirm expression construct integrity, the resulting clones were expressed in E. coli and the desired fusion proteins isolated with glutathione-agarose and recovered with glutathione elution. These fusion proteins or control proteins were then adsorbed to different wells of a 96-well ELISA plate and remaining sites blocked with BSA. Synthetic commercially synthesized peptides encoding the desired PDZ-binding domain (i.e., the 16 C-terminal amino acids of MMAC1, or the C-terminal peptide sequences of interacting proteins identified by the approach of Example 2, or the C-terminal peptide sequences identified by the approach of Example 3), or a control peptide, and biotinylated at the amino-terminus, were pre-bound to streptavidin-alkaline phosphatase in a 4:1 molar ratio. The biotinylated peptide streptavidin-alkaline phosphatase complexes were then blocked with free biotin. These pre-bound peptide streptavidin-alkaline phosphatase complexes were then incubated with the immobilized PDZ domains in wash buffer containing PBS, BSA and triton-X100. Unbound material was removed with repeated washes. Bound peptide/streptavidin-alkaline phosphatase complex was then quantitated by a colorimetric phosphatase assay read on a 96-well plate reader.
(§2) The following peptides were used in the initial study: […]

MMSc1 PDZ 6 = target: T2, MMSc1 PDZ 6 (Homo sapiens, UniProt Q8NI35); test: Peptide binding ELISA assay (PDZ Binding Assay), MMSC1 PDZ domain 6; conditions: immobilized GST fusion of MMSc1 PDZ 6; biotinylated peptide pre-bound to streptavidin-alkaline phosphatase; colorimetric phosphatase assay
T2 construct: made in house; host or cells: E. coli
T2 sequence (Q8NI35 1068-1160 limits assumed): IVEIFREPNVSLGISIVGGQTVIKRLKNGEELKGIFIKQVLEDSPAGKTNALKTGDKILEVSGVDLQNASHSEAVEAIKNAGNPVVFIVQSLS
Description: as §1, §2

MMSc1 PDZ 5 = target: T3, MMSc1 PDZ 5 (Homo sapiens, UniProt Q8NI35); test: Peptide binding ELISA assay (PDZ Binding Assay), MMSC1 PDZ domain 5; conditions: immobilized GST fusion of MMSc1 PDZ 5; biotinylated peptide pre-bound to streptavidin-alkaline phosphatase; colorimetric phosphatase assay
T3 construct: made in house; host or cells: E. coli
T3 sequence (Q8NI35 686-772 limits assumed): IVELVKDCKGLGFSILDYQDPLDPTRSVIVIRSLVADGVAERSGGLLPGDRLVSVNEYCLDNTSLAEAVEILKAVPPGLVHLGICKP
Description: as §1, §2

MMSc1 PDZ 9 = target: T4, MMSc1 PDZ 9 (Homo sapiens, UniProt Q8NI35); test: Peptide binding ELISA assay (PDZ Binding Assay), MMSC1 PDZ domain 9; conditions: immobilized GST fusion of MMSc1 PDZ 9; biotinylated peptide pre-bound to streptavidin-alkaline phosphatase; colorimetric phosphatase assay
T4 construct: made in house; host or cells: E. coli
T4 sequence (Q8NI35 1533-1615 limits assumed): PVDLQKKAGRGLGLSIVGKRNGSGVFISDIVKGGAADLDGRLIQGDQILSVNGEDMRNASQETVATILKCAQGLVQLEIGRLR
Description: as §1, §2

MMSc1 PDZ 3 = target: T5, MMSc1 PDZ 3 (Homo sapiens, UniProt Q8NI35); test: Peptide binding ELISA assay (PDZ Binding Assay), MMSC1 PDZ domain 3; conditions: immobilized GST fusion of MMSc1 PDZ 3; biotinylated peptide pre-bound to streptavidin-alkaline phosphatase; colorimetric phosphatase assay
T5 construct: made in house; host or cells: E. coli
T5 sequence (Q8NI35 365-453 limits assumed): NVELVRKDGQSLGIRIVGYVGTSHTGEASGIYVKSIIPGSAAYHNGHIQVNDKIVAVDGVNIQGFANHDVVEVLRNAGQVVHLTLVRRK
Description: as §1, §2

MMSc1 PDZ 7 = target: T6, MMSc1 PDZ 7 (Homo sapiens, UniProt Q8NI35); test: Peptide binding ELISA assay (PDZ Binding Assay), MMSC1 PDZ domain 7; conditions: immobilized GST fusion of MMSc1 PDZ 7; biotinylated peptide pre-bound to streptavidin-alkaline phosphatase; colorimetric phosphatase assay
T6 construct: made in house; host or cells: E. coli
T6 sequence (Q8NI35 1239-1322 limits assumed): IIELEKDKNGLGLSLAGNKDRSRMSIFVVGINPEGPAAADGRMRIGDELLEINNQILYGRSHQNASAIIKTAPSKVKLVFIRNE
Description: as §1, §2

Substance	A405 (MMSc1 PDZ 8)	A405 (MMSc1 PDZ 6)	A405 (MMSc1 PDZ 5)	A405 (MMSc1 PDZ 9)	A405 (MMSc1 PDZ 3)	A405 (MMSc1 PDZ 7)
Biotin-ENEPFDEDQHTQITKV-OH [MMAC]	0.30	0.23	0.00	0.10	0.01	1.25
Biotin-SGDDGDDPFLQYEFYV-OH [AF6]	0.29	1.46	0.02	2.41	2.24	1.05
Biotin-SGSGILAPPVPPRNTR-OH [SH3]	0.00	0.00	0.00	0.02	0.01	0.01

Reference: patent US6337192B1, “MMSC1-an MMAC1 interacting protein” (Myraid Genetics, Inc., priority 1998, dated 2002)
